Patent US10292965B2, “Nintedanib diethanesulfonate salt crystal and preparation method and use thereof” (Chia Tai Tianqing Pharmaceutical Group Co., Ltd., priority 2015, dated 2019)

Columns and labels:
Format in all cases: physicochemical
[1] = Moisture content after storage under high humidity and accelerated test conditions; settings: high humidity (25° C., 92.5% RH) and accelerated test conditions (40±2° C., 75%±5% RH) for 10 days
[2] = Stability test (influence factors: high-humidity, light irradiation, accelerated test); sample purity measured; settings: for purity of the sample, accelerated test: accelerated test 40° C.±2° C., relative humidity 75%±5%; for purity of the sample, initial value: day 0, initial value; for purity of the sample, high-humidity test: high-humidity 25° C., 92.5% RH; for purity of the sample, light irradiation test: light irradiation 10000 lx±500 lx
Text: The tests last for 10 days. Samples were taken on days 0, 5 and 10 to measure the purities of the samples so as to determine their stabilities.

[3] = Intrinsic dissolution rate, rotating disk method (USP Chapter 1087); settings: 700 ml 0.1 mol/L hydrochloric acid, 300 rpm, 37° C., detection 287 nm
Experimental: Intrinsic dissolution rates of the crystalline Form A of nintedanib diethanesulfonate prepared in Example 1 and the crystalline form of nintedanib diethanesulfonate prepared according to WO2012068441 (the existing crystal) were determined by using the intrinsic dissolution rotating disk method in Chapter 1087 of the U.S. Pharmacopeia, and the results are shown in Table 2. Dissolution Medium: 700 ml of 0.1 mol/L hydrochloric acid solution, Rotating Speed: 300 rpm, Detection Wavelength: 287 nm, Medium Temperature: 37° C.

moisture content ([1]; listed as crystalline Form A of nintedanib diethanesulfonate)	purity of the sample, accelerated test ([2]; day 10) [%]	purity of the sample, initial value [2] [%]	purity of the sample, high-humidity test ([2]; day 5) [%]	purity of the sample, high-humidity test ([2]; day 10) [%]	purity of the sample, light irradiation test ([2]; day 5) [%]	purity of the sample, light irradiation test ([2]; day 10) [%]	Average dissolution rate [3] [µg/mL/min]	Maximum dissolution rate [3] [µg/mL/min]	character (appearance) after storage [1]	moisture content ([1]; listed as crystalline form of nintedanib diethanesulfonate prepared according to WO2012068)	SMILES
essentially unchanged	99.77	99.80	99.78	99.79	99.79	99.70	22.508	23.344	–	–	CCS(=O)(=O)O.COC(=O)c1ccc2c(c1)NC(=O)/C2=C(\Nc1ccc(N(C)C(=O)CN2CCN(C)CC2)cc1)c1ccccc1 [The crystalline Form A, nintedanib diethanesulfonate]
–	95.10	99.78	99.72	99.67	99.73	99.19	13.373	14.689	absorbs moisture to become clumping	increases significantly	CCS(=O)(=O)O.COC(=O)c1ccc2c(c1)NC(=O)/C2=C(\Nc1ccc(N(C)C(=O)CN2CCN(C)CC2)cc1)c1ccccc1 [The existing crystal, nintedanib diethanesulfonate]
